Reference: US10131652B2, “Pyrimidinyloxy benzene derivatives as herbicides” (E. I. DU PONT DE NEMOURS AND COMPANY, priority 2014, dated 2018)

Experiments:
Type in all cases: in vivo
[1] = tested on: galium (catchweed bedstraw, Galium aparine); experiment: Test D pre-/postemergence plant response; details: Postemergence; for Galium plant response rating: 31 g ai/ha, scale 0 to 100 (0 no effect, 100 complete control); for Plant response rating, Galium: scale 0 to 100, 0 no effect, 100 complete control
In short: (§1)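 Visual injury scoring (0–100) at 13 to 15 days in greenhouse. Preemergence sprays on seeded loam/sand; postemergence sprays on 1–4 leaf plants.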

[2] = tested on: yellow nutsedge (Cyperus esculentus); experiment: Test D pre-/postemergence plant response; details: Postemergence
In short: as §1

[3] = tested on: winter wheat (Triticum aestivum); experiment: Test D pre-/postemergence plant response; details: Postemergence
In short: as §1

[4] = tested on: ragweed (common ragweed, Ambrosia elatior); experiment: Test D pre-/postemergence plant response; details: Postemergence
In short: as §1

[5] = tested on: johnsongrass (Sorghum halepense); experiment: Test D pre-/postemergence plant response; details: Postemergence; for Johnsongrass plant response rating: 31 g ai/ha, scale 0 to 100 (0 no effect, 100 complete control); for Plant response rating, Johnsongrass: scale 0 to 100, 0 no effect, 100 complete control
In short: as §1

[6] = tested on: oilseed rape (Brassica napus); experiment: Test D pre-/postemergence plant response; details: Postemergence
In short: as §1

[7] = tested on: corn (Zea mays); experiment: Test B pre-/postemergence plant response
In short: (§2)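 Greenhouse pots, loam/sand soil; compound formulated with surfactant in non-phytotoxic solvent. Preemergence soil spray and postemergence spray at 1–2 leaf stage run simultaneously. Visual injury, 0–100, about 10 days post-treatment.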

[8] = tested on: giant foxtail (Setaria faberii); experiment: Test B pre-/postemergence plant response
In short: as §2

[9] = tested on: barnyardgrass (Echinochloa crus-galli); experiment: Test B pre-/postemergence plant response
In short: as §2

[10] = tested on: pigweed (Amaranthus retroflexus); experiment: Test B pre-/postemergence plant response
In short: as §2

[11] = tested on: wheat (Triticum aestivum); experiment: Test B pre-/postemergence plant response
In short: as §2

[12] = tested on: rice (Oryza sativa); experiment: Test C flooded paddy test plant response; details: Flood, 250 g ai/ha; scale of 0 to 100 where 0 is no effect and 100 is complete control; 13 to 15 days
In short: (§3)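 Plants grown to the 2-leaf stage; pots flooded to 3 cm above soil, test compounds applied directly to paddy water, depth maintained throughout. Greenhouse for 13 to 15 days, then visual rating versus controls on a 0–100 scale (0 no effect, 100 complete control).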

[13] = tested on: barnyardgrass (Echinochloa crus-galli); experiment: Test C flooded paddy test plant response; details: Flood, 250 g ai/ha; scale of 0 to 100 where 0 is no effect and 100 is complete control; 13 to 15 days
In short: as §3

[14] = tested on: ducksalad (Heteranthera limosa); experiment: Test C flooded paddy test plant response; details: Flood, 250 g ai/ha; scale of 0 to 100 where 0 is no effect and 100 is complete control; 13 to 15 days
In short: as §3

[15] = tested on: small-flower umbrella sedge (Cyperus difformis); experiment: Test C flooded paddy test plant response; details: Flood, 250 g ai/ha; scale of 0 to 100 where 0 is no effect and 100 is complete control; 13 to 15 days
In short: as §3

[16] = 31 g ai/ha, scale 0 to 100 (0 no effect, 100 complete control)
[17] = 62 g ai/ha, scale 0 to 100, 0 no effect, 100 complete control
[18] = 125 g ai/ha, scale 0 to 100, 0 no effect, 100 complete control
[19] = 125 g ai/ha, postemergence, 0 to 100 scale, 0 no effect, 100 complete control
[20] = Postemergence, 31 g ai/ha, 0 to 100 scale (0 no effect, 100 complete control)
[21] = 31 g ai/ha, Preemergence, 0 to 100 scale where 0 is no effect and 100 is complete control
[22] = Preemergence, 125 g ai/ha, 0 to 100 scale (0 no effect, 100 complete control)
[23] = 31 g ai/ha, Postemergence, 0 to 100 scale, 0 no effect, 100 complete control

SMILES: CC(F)(F)c1cc(-c2ccccc2Oc2ncc(Cl)cn2)on1 [Compound 178]
- Plant response rating (scale 0 to 100), Galium ([1]; 16 g ai/ha): 75
- Galium plant response rating [1]: 80
- Plant response rating, Galium ([1]; 62 g ai/ha): 98
- Plant response rating, Galium ([1]; 125 g ai/ha): 85
- Plant response rating (scale 0 to 100), Nutsedge, Yellow ([2]; 16 g ai/ha): 5
- Nutsedge, Yellow plant response rating [2, 16]: 5
- Nutsedge, Yellow plant response rating [2, 17]: 10
- Plant response rating, Nutsedge, Yellow [2, 18]: 5
- Plant response rating (scale 0 to 100), Wheat ([3]; 16 g ai/ha): 0
- Wheat plant response rating [3, 16]: 5
- Wheat plant response rating [3, 17]: 5
- Plant response rating, Wheat [3, 18]: 10
- Plant response rating (scale 0 to 100), Ragweed ([4]; 16 g ai/ha): 5
- Ragweed plant response rating [4, 16]: 5
- Ragweed plant response rating [4, 17]: 20
- Plant response rating, Ragweed [4, 18]: 35
- Plant response rating (scale 0 to 100), Johnsongrass ([5]; 16 g ai/ha): 10
- Johnsongrass plant response rating [5]: 10
- Plant response rating, Johnsongrass ([5]; 62 g ai/ha): 15
- Plant response rating, Johnsongrass ([5]; 125 g ai/ha): 10
- Plant response rating (scale 0 to 100), Oilseed Rape ([6]; 16 g ai/ha): 35
- Oilseed Rape plant response rating [6, 16]: 80
- Oilseed Rape plant response rating [6, 17]: 80
- Plant response rating, Oilseed Rape [6, 18]: 95
- Plant response rating, Corn [7, 19]: 20
- Plant response rating, Corn [7, 20]: 0
- Plant response rating, Foxtail, Giant [8, 21]: 60
- Plant response rating, Foxtail, Giant [8, 19]: 60
- Plant response rating, Foxtail, Giant [8, 20]: 10
- Foxtail, Giant plant response rating [8, 22]: 90
- Plant response rating, Barnyardgrass [9, 21]: 20
- Plant response rating, Barnyardgrass [9, 19]: 40
- Plant response rating, Barnyardgrass [9, 20]: 0
- Barnyardgrass plant response rating [9, 22]: 70
- Plant response rating, Pigweed [10, 21]: 90
- Plant response rating, Pigweed [10, 19]: 100
- Plant response rating, Pigweed [10, 20]: 100
- Pigweed plant response rating [10, 22]: 100
- Plant response rating, Wheat [11, 19]: 10
- Plant response rating, Wheat [11, 20]: 0
- Rice plant response rating [12]: 0
- Barnyardgrass plant response rating [13]: 40
- Ducksalad plant response rating [14]: 90
- Sedge, Umbrella plant response rating [15]: 85

SMILES: Fc1cccc(Oc2ncc(Cl)cn2)c1-c1cc(C2CC2)on1 [Compound 130]
- Galium plant response rating [1]: 90
- Plant response rating, Galium ([1]; 62 g ai/ha): 95
- Plant response rating, Galium ([1]; 125 g ai/ha): 100
- Nutsedge, Yellow plant response rating [2, 16]: 5
- Plant response rating, Nutsedge, Yellow [2, 17]: 20
- Plant response rating, Nutsedge, Yellow [2, 18]: 25
- Wheat plant response rating [3, 16]: 5
- Plant response rating, Wheat [3, 17]: 30
- Plant response rating, Wheat [3, 18]: 35
- Ragweed plant response rating [4, 16]: 60
- Plant response rating, Ragweed [4, 17]: 75
- Plant response rating, Ragweed [4, 18]: 40
- Johnsongrass plant response rating [5]: 5
- Plant response rating, Johnsongrass ([5]; 62 g ai/ha): 5
- Plant response rating, Johnsongrass ([5]; 125 g ai/ha): 10
- Oilseed Rape plant response rating [6, 16]: 80
- Plant response rating, Oilseed Rape [6, 17]: 75
- Plant response rating, Oilseed Rape [6, 18]: 95
- Plant response rating, Corn [7, 23]: 20
- Plant response rating, Corn [7, 19]: 40
- Plant response rating, Foxtail, Giant [8, 23]: 50
- Plant response rating, Foxtail, Giant [8, 21]: 90
- Plant response rating, Foxtail, Giant [8, 19]: 80
- Foxtail, Giant plant response rating [8, 22]: 100
- Plant response rating, Barnyardgrass [9, 23]: 40
- Plant response rating, Barnyardgrass [9, 21]: 50
- Plant response rating, Barnyardgrass [9, 19]: 100
- Barnyardgrass plant response rating [9, 22]: 90
- Plant response rating, Pigweed [10, 21]: 100
- Plant response rating, Pigweed [10, 19]: 100
- Pigweed plant response rating [10, 22]: 100
- Plant response rating, Wheat [11, 19]: 40
- Rice plant response rating [12]: 30
- Barnyardgrass plant response rating [13]: 65
- Ducksalad plant response rating [14]: 90
- Sedge, Umbrella plant response rating [15]: 90
